According to EP0332216A1 (priority 1988, dated 1989):

Key:
Solubility to solvent = format: physicochemical
bacteria = assay: Anti-microbial activity in vitro (bacteria); format: cell-based; conditions: concentration of 500 µg/mℓ
yeast = assay: Anti-microbial activity in vitro (yeast); format: cell-based; conditions: concentration of 500 µg/mℓ
[1] = Acute toxicity in mice (intraperitoneal); conditions: mouse, in vivo, ip; JCL/ICR male mice, 5 weeks; administration into the peritoneal cavity; mortality after two weeks; read-out: LD₅₀
filamentous fungi = assay: Anti-microbial activity in vitro (filamentous fungi); format: cell-based; conditions: concentration of 500 µg/mℓ

## CC1=C(C(=O)O)COC1=O [F-0368]
Solubility to solvent; acetone
  Solubility to Solvent: Readily soluble
Solubility to solvent; benzene
  Solubility to Solvent: Non-soluble
Solubility to solvent; chloroform
  Solubility to Solvent: Non-soluble
Solubility to solvent; ethanol
  Solubility to Solvent: Readily soluble
Solubility to solvent; ethyl acetate
  Solubility to Solvent: Soluble
Solubility to solvent; hexane
  Solubility to Solvent: Non-soluble
Solubility to solvent; methanol
  Solubility to Solvent: Readily soluble
Solubility to solvent; water
  Solubility to Solvent: Soluble
bacteria
  anti-microbial activity in vitro: did not indicate its anti-microbial activity
yeast
  anti-microbial activity in vitro: did not indicate its anti-microbial activity
[1]
  LD50 at 336 h: ~200 mg/kg
Filamentous fungi
  anti-microbial activity in vitro: did not indicate its anti-microbial activity
